Test results as given in patent publication US9174951B2, “Glucose transporter inhibitors” (The Ohio State University Research Foundation, priority 2012, dated 2015).

Columns and labels:
LNCaP cells [1] = assay: MTT cell viability assay, LNCaP; format: cell-based, human; settings: Homo sapiens, LNCaP, 72 h, MTT, 10% FBS
Procedure: Cell Viability Assay. Cell viability was determined using the 3-(4,5-dimethylthiazol-2-yl)-2,5-diphenyltetrazolium bromide (MTT) assay. Cancer cells were seeded at 5000 cells/well and normal cells were seeded at 8000 cells/well in 96-well plates and incubated in 10% FBS-supplemented medium for 24 h. Cells were then treated with individual agents for 72 h. Drug-containing medium was replaced with medium containing MTT (0.5 mg/mL), followed by incubation at 37° C. for 1 h. After removal of medium, the reduced MTT dye in each well was solubilized in 100 μL of DMSO and absorbance at 570 nm was measured.
Compound 30 was evaluated for antiproliferative activity in panels of different human cancer cells lines, including those of prostate, breast and pancreatic cancers. In all experiments, cells were treated with a range of concentrations of Compound 30 in the presence of 10% fetal bovine serum (FBS). Cell viability was then determined after 72 h of treatment using the 3-(4,5-dimethylthiazol-2-yl)-2,5-diphenyltetrazolium bromide (MTT) assay. […] It is noteworthy that despite this high antiproliferative potency, normal human prostate epithelial cells (PrECs) were resistant to the cytotoxic effect of Compound 30 even at 10 μM.

LNCaP cells [2] = assay: [3H]2-DG glucose uptake assay in LNCaP cells; format: cell-based, human; settings: for IC50: Homo sapiens, LNCaP, Krebs-Ringer phosphate buffer, 37° C., 30 min of drug treatment, read-out: IC50 in blocking [3H]2-DG uptake into LNCaP cells; for inhibition of [3H]2-DG uptake into LNCaP cells (screening, in words): each at 5 μM, 30 min of exposure
Procedure: Screening of the focused compound library to identify lead glucose uptake inhibitors.
Glucose Uptake Assay. LNCaP cells were seeded in six-well plates (3×10^5 cells/well) for 24 h. […] The cells were lysed in […] lysis buffer (10 mM Tris-HCl pH 8.0, 0.1% SDS) and aliquots were taken for measurement of radioactivity using a scintillation counter (Beckman LS6500).

| SMILES | IC50 (LNCaP cells [1]) | IC50 (LNCaP cells [2]) | inhibition of [3H]2-DG uptake into LNCaP cells (screening, in words) (LNCaP cells [2]) |
| --- | --- | --- | --- |
| CC1(COc2ccc(/C=C3\SC(=O)NC3=O)cc2)CCCCC1 [Compound 2, (Z)-5-(4-[(1-methylcyclohexyl)methoxy]benzylidene)-thiazolidine-2,4-dione, reference compound] | 28 µM | 52 µM | – |
| CC1(COc2ccc(CC3SC(=O)NC3=O)cc2)CCCCC1 (stereo not shown) [Compound 1, ciglitazone, reference compound] | 60 µM | 78 µM | – |
| O=C1SC(=Cc2ccc(O)c(C(F)(F)F)c2)C(=O)N1CC(CC(F)(F)F)CC(F)(F)F [Compound 28, 5-(4-Hydroxy-3-trifluoromethyl-benzylidene)-3-[4,4,4-trifluoro-2-(2,2,2-trifluoro-ethyl)-butyl]-thiazolidine-2,4-dione] | 2.2 µM | 3.5 µM | substantially improved potency relative to compound 5 |
| O=C1SC(=Cc2ccc(O)c(C(F)(F)F)c2)C(=O)N1CC(F)(CC(F)(F)F)CC(F)(F)F [Compound 29, 5-(4-Hydroxy-3-trifluoromethyl-benzylidene)-3-[2,4,4,4-tetrafluoro-2-(2,2,2-trifluoro-ethyl)-butyl]-thiazolidine-2,4-dione] | – | – | substantially improved potency relative to compound 5 |
| CC1(CN2C(=O)S/C(=C\c3ccc(O)c(C(F)(F)F)c3)C2=O)CCCCC1 [Compound 4, (Z)-5-(4-hydroxy-3-(trifluoromethyl)benzylidene)-3-((1-methylcyclohexyl)methyl)thiazolidine-2,4-dione, reference compound] | 6 µM | 9 µM | – |
